Assay results: patent US20240287138A1, “CYCLIC PEPTIDES FOR INHIBITING TNF RECEPTOR 1 ACTIVITY” (Merck Sharp & Dohme LLC, priority 2023, published 2024)
pIC50: −log10 of the molar value. Numbered stars: 1 amine (or outer) side, 2 acyl side, 3 side chain; on linkers, the order of the positions; unused ones are H or OH. Bridge positions count the residues as written; N and C are the ends. Square brackets hold non-standard residues; d marks the D form. Peptide text beside a SMILES is read from it. * marks the point of attachment. Trp(βS-Me,7-OMe) = COc1cccc2c([C@H](C)[C@H](N)C(=O)O)c[nH]c12; Phe(2-F,4-COOH) = N[C@@H](Cc1ccc(C(=O)O)cc1F)C(=O)O; Trp(7-CN) = N#Cc1cccc2c(C[C@H](N)C(=O)O)c[nH]c12; Trp(7-Cl) = N[C@@H](Cc1c[nH]c2c(Cl)cccc12)C(=O)O; Biotin = O=C1N[C@H]2[C@H](CS[C@H]2CCCCC(=O)*)N1; Phe(3-COOH) = N[C@@H](Cc1cccc(C(=O)O)c1)C(=O)O; Phe(4-CONH2) = NC(=O)c1ccc(C[C@H](N)C(=O)O)cc1; Phe(4-COOH) = N[C@@H](Cc1ccc(C(=O)O)cc1)C(=O)O; Trp(7-aza) = N[C@@H](Cc1c[nH]c2ncccc12)C(=O)O; Tyr(3-OMe) = COc1cc(C[C@H](N)C(=O)O)ccc1O; Pip(5R-OH) = O=C(O)[C@@H]1CC[C@@H](O)CN1; X1 = O=C([C@@H]1CC[C@H](N[*:1])C1)[*:2]; X42 = C[C@@H](CO)N(CC(=O)[*:2])[*:1]; Pip(4-aza) = O=C(O)[C@@H]1CNCCN1; 4Pal = N[C@@H](Cc1ccncc1)C(=O)O; NMeE = CN[C@@H](CCC(=O)O)C(=O)O; αMeS = C[C@](N)(CO)C(=O)O; Nle = CCCC[C@H](N)C(=O)O; AEA = NCCOCC(=O)O; Sar = CNCC(=O)O

What follows are compounds tested against T1, TNFα-induced NF-κB signal transduction pathway (TNFR1 signaling) in THP-1 cells (Homo sapiens, UniProt P19438) (assay: THP-1 Lucia NF-κB reporter cell assay, inhibition of TNFα-induced NF-κB signaling). Details: THP-1 NF-κB Lucia reporter cells, 10 ng/mL TNFα, 16-18 h, secreted luciferase; read-out: THP-1 IC50.
T1 sequence (P19438 30-455): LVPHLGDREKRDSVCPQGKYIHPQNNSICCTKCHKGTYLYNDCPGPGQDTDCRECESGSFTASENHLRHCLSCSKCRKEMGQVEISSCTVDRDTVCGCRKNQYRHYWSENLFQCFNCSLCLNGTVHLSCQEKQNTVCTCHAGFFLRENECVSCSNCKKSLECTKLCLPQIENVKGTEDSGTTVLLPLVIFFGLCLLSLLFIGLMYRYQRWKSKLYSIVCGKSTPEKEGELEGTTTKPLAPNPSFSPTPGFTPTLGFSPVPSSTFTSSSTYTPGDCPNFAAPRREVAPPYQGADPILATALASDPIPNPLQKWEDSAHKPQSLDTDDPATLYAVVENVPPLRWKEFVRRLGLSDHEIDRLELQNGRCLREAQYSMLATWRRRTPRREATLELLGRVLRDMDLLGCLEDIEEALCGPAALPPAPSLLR
Assay type: cell-based
Experimental: C. Procedure for THP-1 Lucia NF-κB cells
The inhibition of TNFα-induced NF-κB signal transduction pathways was evaluated in THP-1 cells. THP-1 cells harboring NF-κB-inducible Lucia™ reporter gene (InvivoGen, cat. #thp1-nfkb) designed for monitoring NF-κB signal transduction pathway was employed to assess the inhibitory effect macrocyclic peptides on TNFR1 signaling. The cells were cultured in media containing RPMI 1640, 2 mM L-glutamine, 25 mM HEPES, 10% heat-inactivated fetal bovine serum with appropriate selection antibiotics. Assays were performed in media that was devoid of selection antibiotics. For profiling, 125 nL of peptides in DMSO (10 mM) were dispensed into Falcon® 384-well Optilux white/clear flat bottom TC-treated microtest microplate (Corning, cat. #353963) using Echo® 555. […] A suspension of 1 million cells/mL was dispensed at 20 μL/well in a 384-well plate to a density of 20,000 cells/well and pre-incubated with peptides at 37° C. for 1 h. Subsequently, 5 μL of TNF containing media (recombinant human TNFα; R&D Systems USA, cat. #210-TA-005/CF) or TNF-free media (for controls) was added to the wells. The final concentration of TNFα in the assay in 10 ng/mL. After o.n. incubation at 37° C. (16-18 h), 5 μL of supernatant was aspirated and transferred to a 384-well microplate (PerkinElmer, cat. #6007680) for measurement of secreted luciferase activity with 25 μL of QUANTI-Luc™ luminescence assay reagent (InvivoGen, cat. #rep-qlc1) in each well. The luminescence was measured in EnVision® Multimode Plate Reader (PerkinElmer). Dose response curves were analyzed using a 4-parameter logistic model to calculate IC50 values, reported in Table 2, using TIBCO® Spotfire® software employing appropriate Minimum and Maximum controls.
`CN1CC(=O)N[C@@H](CC(N)=O)C(=O)N[C@@H](Cc2ccc(O)cc2)C(=O)N[C@@H](Cc2c[nH]c3ccccc23)C(=O)N[C@@H](CO)C(=O)N[C@@H](Cc2ccc(O)cc2)C(=O)N[C@@H](Cc2ccc(O)cc2)C(=O)N(C)CC(=O)N[C@@H](Cc2c[nH]c3ccccc23)C(=O)N[C@H](C(=O)NCC(=O)NCCOCC(=O)N[C@@H](CCCCNC(=O)CCCC[C@@H]2SC[C@@H]3NC(=O)N[C@@H]32)C(N)=O)CSCC(=O)N[C@@H](Cc2ccccc2)C(=O)N[C@@H](Cc2ccc(O)cc2)C(=O)N[C@@H](CO)C(=O)N[C@@H](Cc2c[nH]c3ccccc23)C1=O` [SEQ ID NO. 1] ({CH2CO}-FYSW[Sar]NYWSYY[Sar]WCG[AEA]K(Biotin)-NH2; thioether N-14) gave a pIC50 of 6.64.
`CCCC[C@@H]1NC(=O)[C@@H]2CC[C@@H](C2)NC(=O)[C@H]([C@@H](C)c2c[nH]c3c(OC)cccc23)NC(=O)CN(C)C(=O)[C@H](Cc2ccc(O)cc2)NC(=O)[C@H](Cc2ccc(C(=O)O)cc2F)NC(=O)[C@](C)(CO)NC(=O)[C@H](Cc2c[nH]c3c(Cl)cccc23)NC(=O)[C@H](Cc2ccncc2)NC(=O)[C@H](CC(N)=O)NC(=O)[C@H](CCC(=O)O)N(C)C(=O)[C@H](Cc2c[nH]c3ccccc23)NC(=O)[C@@H]2CNCCN2C(=O)[C@H](Cc2ccncc2)NC1=O` [SEQ ID NO. 7] (cyclo([4Pal][Trp(7-Cl)][αMeS][Phe(2-F,4-COOH)]Y[Sar][Trp(βS-Me,7-OMe)][X1][Nle][4Pal][Pip(4-aza)]W[NMeE]N)) gave a pIC50 of 8.80.
`CCCC[C@@H]1NC(=O)[C@@H]2CC[C@@H](C2)NC(=O)[C@H]([C@@H](C)c2c[nH]c3c(OC)cccc23)NC(=O)CN(C)C(=O)[C@H](Cc2ccc(C(N)=O)cc2)NC(=O)[C@H](Cc2ccc(C(N)=O)cc2)NC(=O)[C@](C)(CO)NC(=O)[C@H](Cc2c[nH]c3c(C#N)cccc23)NC(=O)[C@H](Cc2ccc(C(=O)O)cc2)NC(=O)[C@H](CC(N)=O)NC(=O)CN([C@@H](C)CO)C(=O)[C@H](Cc2c[nH]c3ncccc23)NC(=O)[C@@H]2CC[C@@H](O)CN2C(=O)[C@H](Cc2ccncc2)NC1=O` [SEQ ID NO. 23] (cyclo([4Pal][Pip(5R-OH)][Trp(7-aza)][X42]N[Phe(4-COOH)][Trp(7-CN)][αMeS][Phe(4-CONH2)][Phe(4-CONH2)][Sar][Trp(βS-Me,7-OMe)][X1][Nle])) showed a pIC50 of 9.10.
For `CCCC[C@@H]1NC(=O)[C@@H]2CC[C@@H](C2)NC(=O)[C@H]([C@@H](C)c2c[nH]c3c(OC)cccc23)NC(=O)CN(C)C(=O)[C@H](Cc2ccc(O)c(OC)c2)NC(=O)[C@H](Cc2ccc(C(=O)O)cc2)NC(=O)[C@](C)(CO)NC(=O)[C@H](Cc2c[nH]c3c(Cl)cccc23)NC(=O)[C@H](Cc2ccncc2)NC(=O)[C@H](CC(N)=O)NC(=O)[C@H](CCC(=O)O)N(C)C(=O)[C@H](Cc2c[nH]c3ccccc23)NC(=O)[C@@H]2CNCCN2C(=O)[C@H](Cc2ccncc2)NC1=O` [SEQ ID NO. 24] (cyclo([4Pal][Trp(7-Cl)][αMeS][Phe(4-COOH)][Tyr(3-OMe)][Sar][Trp(βS-Me,7-OMe)][X1][Nle][4Pal][Pip(4-aza)]W[NMeE]N)), the pIC50 was 9.15.
`CCCC[C@@H]1NC(=O)[C@@H]2CC[C@@H](C2)NC(=O)[C@H]([C@@H](C)c2c[nH]c3c(OC)cccc23)NC(=O)CN(C)C(=O)[C@H](Cc2ccc(O)cc2)NC(=O)[C@H](Cc2cccc(C(=O)O)c2)NC(=O)[C@](C)(CO)NC(=O)[C@H](Cc2c[nH]c3c(Cl)cccc23)NC(=O)[C@H](Cc2ccncc2)NC(=O)[C@H](CC(N)=O)NC(=O)[C@H](CCC(=O)O)N(C)C(=O)[C@H](Cc2c[nH]c3ccccc23)NC(=O)[C@@H]2CNCCN2C(=O)[C@H](Cc2ccncc2)NC1=O` [SEQ ID NO. 28] (cyclo([4Pal][Trp(7-Cl)][αMeS][Phe(3-COOH)]Y[Sar][Trp(βS-Me,7-OMe)][X1][Nle][4Pal][Pip(4-aza)]W[NMeE]N)) showed a pIC50 of 8.80.
